In publication PMC8800119 (The Journal of Biological Chemistry, 2022) one finds Kd data, which are given here for 1 compound.

Molecules are shown by their SMILES.

In the assay the target is T1, glutaminase C (GAC) (Homo sapiens, UniProt O94925, Y466W).
T1 sequence (O94925 72-550 Y466W): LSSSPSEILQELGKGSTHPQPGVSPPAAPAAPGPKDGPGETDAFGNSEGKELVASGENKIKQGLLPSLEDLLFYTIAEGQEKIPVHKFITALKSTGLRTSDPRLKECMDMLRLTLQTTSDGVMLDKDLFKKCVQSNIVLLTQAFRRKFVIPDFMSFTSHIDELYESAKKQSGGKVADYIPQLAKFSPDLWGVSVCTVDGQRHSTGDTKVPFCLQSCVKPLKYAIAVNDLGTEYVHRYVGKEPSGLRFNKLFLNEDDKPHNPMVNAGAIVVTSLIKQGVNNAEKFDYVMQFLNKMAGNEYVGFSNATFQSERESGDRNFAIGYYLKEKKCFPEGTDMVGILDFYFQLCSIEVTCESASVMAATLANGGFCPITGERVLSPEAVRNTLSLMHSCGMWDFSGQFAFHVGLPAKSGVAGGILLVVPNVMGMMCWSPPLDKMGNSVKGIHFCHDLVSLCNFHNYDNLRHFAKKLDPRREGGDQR
The assay is described as follows: Trp466 fluorescence titration of phosphate at […] glutamine. Type of assay: binding.

Take `O=P(O)(O)O` [inorganic phosphate]: the Kd (commonly the free concentration of one partner at which half of the binding sites on the other are occupied at equilibrium, for simple one-to-one binding) was 8.5 ± 1.9 mM.
